# Values joined by “and” are separate entries in the source; they are usually repeats but may differ in a detail not shown here. Equal entries are not always repeated. Marks after values point to notes of the source that are not given here.
# Tests used:
# [1] = test system: control mice; assay: Radiant heat tail-flick antinociception, control (LPS-untreated) mice; format: in vivo
# Excerpt: Pain is a hallmark of many inflammatory conditions.
# [2] = test system: LPS-pretreated mice; assay: animal or person; settings: for LPS pretreated i.c.v./i.t. ratio / LPS pretreated ED50 (CI) i.t.: LPS 1 mg/kg 24 hours i.p.; for LPS pretreated ED50 (CI) i.t.: tail flick
# Procedure: Male ICR-CD1 mice (17-25 g; Harlan, Madison, Wis.), C3H mice (15-20 g, National Cancer Institute, Bethesda, Md.) or TLR4 knock-out mice (gift from Dr. Sabita Roy) were housed, 4 to a small box in a temperature- and humidity-controlled environment with unlimited access to food and water. They were maintained on a 12 h light/dark cycle. All experiments were approved by the Institutional Animal Care and Use Committee of the University of Minnesota (Minneapolis, Minn.).
# The tail flick assay is used to test for antinociception described by D'Amour and Smith^64 and modified by Dewey et. al.^65 Mice are held gently in one hand with the tail positioned in the apparatus (Tail Flick Analgesia Meter, Columbus Instruments, Columbus, Ohio) for radiant heat stimulus. The tail-flick response is elicited by applying radiant heat to the dorsal side of the tail. The test latency is measured before drug treatment (control) and again after the drug treatment (test) at the peak time of the compound, a 10 s maximum cut-off time is used to prevent damage to the tail. Antinociception is quantified according to the method of Harris and Pierson^66 as the percent maximal possible effect (% MPE) which is calculated as: % MPE=(Test−Control/10−Control)×100
# A minimum of three groups of eight to ten mice are used for each dose response curve, and each mouse is used only once.
# The compounds were tested for acute tolerance by comparing the ED80-90 dose measured on day 1 to the same dose administered and retested 24 hours later on the same mouse.
# Compounds were dissolved in 5% DMSO and diluted to less than 1% DMSO for injection. These compounds were administered in a volume of 5-μl either i.c.v (Haley and McCormick) or intrathecal (i.t.) as described for mice by Hylden and Wilcox^67 in conscious mice. […] Time course studies, including the times 5, 10, 20, 30 and 60 minutes were used to determine the peak antinociception.
# Pain is a hallmark of many inflammatory conditions. […] Antinociception was evaluated using the radiant heat-induced tailflick assay. Morphine was employed as a standard opioid agonist under these conditions.
# [3] = test system: CFA-induced mechanical hyperalgesia mouse model; assay: Complete Freund's Adjuvant (CFA) mechanical hyperalgesia, electronic von Frey; format: in vivo, mice; settings: i.t.
# Procedure: Before injection of CFA baseline withdrawal thresholds (g) were obtained from a mechanical stimulation using an electronic von Frey anesthesiometer (IITC Life Sciences, Woodland Hills, USA) by applying an accurate force on both left and right hind paw. (2,3) The left hindpaws were then injected (intraplantar) with a 50% solution of CFA (10 μg, Sigma-Aldrich) in water while the mice are under isoflurane anesthesia (10). Twenty-four hours later the withdrawal threshold (g) was again measured prior to and after the test compound i.t. at 10, 20, 30 and 60 minutes to determine the peak time and subsequent ED50. % MPE was calculated ((Time-point withdrawal threshold with drug−CFA withdrawal threshold)/(Day 0 withdrawal threshold−CFA withdrawal threshold))*100 (Wade, C. L., et al., PLoS One 2013, 8, e79239/1-e79239/11, 11 pp; Martinov, T., et al., J Vis Exp 2013, e51212; Sorge, R. E., et al., J. Neurosci. 2011, 31, 15450-15454).
# [4] = test system: mice with cisplatin-induced hyperalgesia; assay: Cisplatin-induced peripheral neuropathy, mechanical hyperalgesia (von Frey); format: in vivo, C3H/HeJ mice; settings: cisplatin model
# Procedure: Adult male C3H/HeJ mice were tested for mechanical paw withdrawal responses on 2 consecutive days prior to treatment by determining the frequency of hind paw withdrawal evoked by a standard von Frey monofilament with a bending force of 3.9 mN applied to the plantar surface of the hind paws. Mice were then given 1 mg/kg of cisplatin intraperitoneal (i.p.) daily for 7 consecutive days and on day 14 post-injection, mechanical hyperalgesia was assessed. Compounds were administered intrathecally (i.t.) and i.p. weekly to determine peak time effects and ED50/80.
# [5] = test system: HbSS and HbAS mice; assay: Sickle cell disease mice, paw withdrawal frequency; format: in vivo, Townes transgenic humanized mice; settings: 8.0 μmol/kg i.p.
# Procedure: Townes transgenic humanized mice expressing sickle hemoglobin (HbSS/HbAS) and normal human hemoglobin (HbAA) controls (4-12 weeks of age, 20-25 g) were used in this study. Mice were characterized for hyperalgesia by quantifying cutaneous mechanical sensitivity of the hind paw and forelimb grip force. Mechanical sensitivity of the hind paw was evaluated by determining the frequency of withdrawal responses and paw withdrawal threshold. The frequency of paw withdrawal evoked by a standard von Frey monofilament with a bending force of 9.3 mN applied to the plantar surface of the hind paws was determined from 10 trials on each paw. Withdrawal threshold was determined using an electronic von Frey anesthesiometer pressed against the plantar surface with increasing force until withdrawal occurred. To assess deep tissue hyperalgesia, the tensile force of peak forelimb exertion was measured using a computerized grip force meter. To evaluate the analgesic effects of MCC22, paw withdrawal frequency was determined before and at various times after administration of […] i.p.
# [6] = test system: LPS-pretreated mice; assay: Effect of minocycline on MCC22 antinociception in LPS-pretreated mice (tail flick); format: in vivo; settings: for MPE after minocycline: MCC22 1 pmol/mouse i.t.
# Procedure: Effect of Minocycline in Mice Pretreated by LPS and Blockage of Antinociception of MCC22.
# Three separate groups of mice (n=8) were pretreated with 1 mg/kg of LPS (i.p.). At 24 hours the baseline antinociception was measured using the tail flick assay to calculate % MPE. […] […] The dose used for MCC22 is a hundred times the ED50 dose of LPS pretreated mice with MCC22.
smiles,measurement,setting,value
"Cc1ccc(N(CCCN2CCC(Cc3ccc(C(N)=O)cc3)CC2)C(=O)C2CCN(C(=O)COCC(=O)NCCCCCCCCCCNC(=O)COCC(=O)N[C@H]3CC[C@@]4(O)C5Cc6ccc(O)c7c6[C@@]4(CCN5C)[C@H]3O7)CC2)cc1Cl [Compound 3e, N-(3-(4-(4-carbamoylbenzyl)piperidin-1-yl)propyl)-N-(3-chloro-4-methylphenyl)-1-(22-(((4aS,7S,7aR,12bS)-4a,9-dihydroxy-3-methyl-2,3,4,4a,5,6,7,7a-octahydro-1H-4,12-methanobenzofuro[3,2-e]isoquinolin-7-yl)amino)-5,18,22-trioxo-3,20-dioxa-6,17-diazadocosan-1-oyl)piperidine-4-carboxamide]",CONTROLS i.c.v./i.t. ratio,[1]; control mice,10.93^e
same,percent maximal possible effect at highest dose measured,"[1]; control mice, i.c.v., 500 pmol/mouse",49.7 ± 14.9%
same,acute tolerance (ED80 retested 24 hours later),"[1]; control mice, i.t.",(23.1-90.8)^b
same,CONTROLS ED50 (CI) i.t.,"[1]; control mice, i.t., tail flick",45.8 pmol/mouse
same,CONTROLS i.c.v./i.t. ratio,"[1]; control mice, listed as MCC22",11
same,potency increase over 3c,"[1]; i.t., LPS-untreated control mice",~4 fold
same,FIG. 4 naïve/MCC22 (value with interval),[1]; naïve mice,45.75 (23.05-90.81)
same,LPS pretreated i.c.v./i.t. ratio,[2],"~34,000^d"
same,LPS pretreated ED50 (CI) i.t.,[2]; i.t.,0.0149 pmol/mouse
same,LPS pretreated ED50 (CI) i.t.,"[2]; i.t., listed as MCC22",0.0146 pmol/mouse
same,LPS pretreated i.c.v./i.t. ratio,[2]; listed as MCC22,"34,000 and 34,223"
same,FIG. 4 LPS/MCC22 (value with interval),[2]; LPS pretreated mice,0.015 (0.01-0.03)
same,percent maximal possible effect at highest dose measured,"[2]; LPS pretreated, i.c.v., 500 pmol/mouse",41.1 ± 12.9%
same,potency in TLR4 KO mice,[2]; LPS-pretreated TLR4 KO mice,not reduced
same,effect of MK801 on antinociception,"[2]; LPS-pretreated mice treated i.t. with NMDA receptor antagonist MK801, then MCC22",virtually no effect
same,"i.t. potency ratio, morphine/MCC22","[2]; LPS-pretreated mice, i.t.",2400
same,ED50,"[2]; Mus musculus, ip, read-out: ED50 i.p.",5.6 µmol/kg
same,ED50 values (95% CI) LPS (thermal),"[2]; i.t., LPS thermal hyperalgesia model",0.015 pmol/mouse
same,potency increase over 19-atom spacer homologue 3c,"[2]; i.t., LPS-pretreated mice",> 700 fold
same,tolerance upon repeated administration,"[2]; i.t., LPS-pretreated mice",without signs of tolerance
same,potency increase over 19-atom spacer homologue 3c,"[2]; i.t., LPS-pretreated mice, listed as MCC22",at least 700 fold
same,LPS-treated/control potency ratio,"[2]; i.t., listed as MCC22",3070 and 3131
same,ED50 potency ratio (β-FNA-treated/control),[2]; inflamed mice pretreated with β-FNA,96.6
same,Relative Potency relative to a mixture of monovalent mu agonist (4) and CCR5 antagonist (2),"[2]; mouse, in vivo",~3500
same,potency relative to morphine or monovalent control ligand 4,"[2]; mouse, in vivo",~1500 fold
same,Relative Potency relative to a mixture of monovalent mu agonist (4) and CCR5 antagonist (2),"[2]; mouse, in vivo, listed as MCC22",3500
same,ED50 values (95% CI) CFA (mechanical),[3],0.019 pmol/mouse
same,ED50 (95% CI) i.p.,[4]; i.p.,3.07 pmol/mouse
same,peak time,[4]; i.p.,30 min
same,tolerance,[4]; i.p.,did not exhibit tolerance
same,ED50 (95% CI) i.t.,[4]; i.t.,0.0004 pmol/mouse
same,change of potency with time,[4]; i.t.,increased in potency over 115 days
same,peak time,[4]; i.t.,20 min
same,tolerance,[4]; i.t.,no tolerance
same,time to reduced hyperalgesia (decrease in paw withdrawal frequency),[5],≤ 30 min
same,MPE after minocycline,"[6]; 60 min after minocycline 45 mg/kg i.p., LPS pretreated",100%
same,MPE after minocycline,"[6]; 120 min after minocycline 45 mg/kg i.p., LPS pretreated",52.04%±17.04
same,MPE after minocycline,"[6]; 240 min after minocycline 45 mg/kg i.p., LPS pretreated",10.7%±5.17
same,% MPE,"[6]; LPS 24 hours, minocycline 4 hours, 1000 pmol/mouse MCC22",49.35±14.38 % MPE
same,FIG. 4 LPS/minocycline/MCC22 (value with interval),"[6]; LPS pretreated, minocycline 45 mg/kg i.p. prior to testing",1016 (54-1558)
